According to PMC11851430, “Workflow for E3 Ligase Ligand Validation for PROTAC Development” (ACS Chemical Biology, 2025):

Columns and labels:
Assay in all cases: DSF assay
Format in all cases: binding
Settings in all cases: 20 µM compound
STK3A = target: T1, STK3A (Homo sapiens, UniProt Q13188)
T1 construct: purchased in-house DSF panel (SGC-style construct names; the trailing A/B is a construct suffix)
T1 sequence (Q13188 16-313): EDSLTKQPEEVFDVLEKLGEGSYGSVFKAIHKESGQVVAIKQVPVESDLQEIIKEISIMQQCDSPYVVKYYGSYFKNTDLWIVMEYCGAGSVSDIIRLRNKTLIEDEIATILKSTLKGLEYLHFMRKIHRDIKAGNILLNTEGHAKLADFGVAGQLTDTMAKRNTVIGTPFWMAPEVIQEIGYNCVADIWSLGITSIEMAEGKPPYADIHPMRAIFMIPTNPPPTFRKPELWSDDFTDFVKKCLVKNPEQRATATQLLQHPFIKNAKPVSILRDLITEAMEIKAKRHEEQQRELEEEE

FLT1 = target: T2, FLT1 (Homo sapiens, UniProt P17948)
T2 construct: purchased in-house DSF panel (SGC-style construct names; the trailing A/B is a construct suffix)
T2 sequence (P17948 801-1158): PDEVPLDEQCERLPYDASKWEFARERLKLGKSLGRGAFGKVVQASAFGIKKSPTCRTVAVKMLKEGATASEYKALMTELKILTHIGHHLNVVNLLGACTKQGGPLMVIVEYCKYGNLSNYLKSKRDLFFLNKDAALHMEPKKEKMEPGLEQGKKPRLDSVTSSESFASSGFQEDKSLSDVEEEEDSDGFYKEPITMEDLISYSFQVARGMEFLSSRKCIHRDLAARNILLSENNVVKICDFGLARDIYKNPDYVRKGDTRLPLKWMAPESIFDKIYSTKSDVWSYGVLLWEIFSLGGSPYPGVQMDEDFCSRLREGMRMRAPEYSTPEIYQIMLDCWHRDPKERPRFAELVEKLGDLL

TTK1A = target: T3, TTK1A (Homo sapiens, UniProt P33981)
T3 construct: purchased in-house DSF panel (SGC-style construct names; the trailing A/B is a construct suffix)
T3 sequence (P33981 519-808): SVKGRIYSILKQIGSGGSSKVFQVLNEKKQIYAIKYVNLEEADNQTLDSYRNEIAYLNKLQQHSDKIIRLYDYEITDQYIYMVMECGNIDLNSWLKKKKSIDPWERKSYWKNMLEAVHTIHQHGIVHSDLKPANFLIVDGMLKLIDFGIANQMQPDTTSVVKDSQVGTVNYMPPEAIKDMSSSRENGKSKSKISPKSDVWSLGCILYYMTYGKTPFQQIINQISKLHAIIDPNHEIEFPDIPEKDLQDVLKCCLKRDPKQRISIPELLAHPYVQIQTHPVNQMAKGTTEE

PHKG2A = target: T4, PHKG2A (Homo sapiens, UniProt P15735)
T4 construct: purchased in-house DSF panel (SGC-style construct names; the trailing A/B is a construct suffix)
T4 sequence (P15735 6-293): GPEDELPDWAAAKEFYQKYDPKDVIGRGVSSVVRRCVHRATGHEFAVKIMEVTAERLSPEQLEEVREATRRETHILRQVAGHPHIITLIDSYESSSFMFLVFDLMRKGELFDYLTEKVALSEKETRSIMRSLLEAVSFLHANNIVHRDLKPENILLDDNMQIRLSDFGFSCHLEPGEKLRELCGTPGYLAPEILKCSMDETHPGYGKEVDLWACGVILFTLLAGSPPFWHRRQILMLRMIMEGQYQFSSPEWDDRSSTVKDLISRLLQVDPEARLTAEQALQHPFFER

PIM3A = target: T5, PIM3A (Homo sapiens, UniProt Q86V86)
T5 construct: purchased in-house DSF panel (SGC-style construct names; the trailing A/B is a construct suffix)

CDK2A = target: T6, CDK2A (Homo sapiens, UniProt P24941)
T6 construct: purchased in-house DSF panel (SGC-style construct names; the trailing A/B is a construct suffix)

MAPK10A = target: T7, MAPK10A (Homo sapiens, UniProt P53779)
T7 construct: purchased in-house DSF panel (SGC-style construct names; the trailing A/B is a construct suffix)

NEK1A = target: T8, NEK1A (Homo sapiens, UniProt Q96PY6)
T8 construct: purchased in-house DSF panel (SGC-style construct names; the trailing A/B is a construct suffix)
T8 sequence (Q96PY6 1-328): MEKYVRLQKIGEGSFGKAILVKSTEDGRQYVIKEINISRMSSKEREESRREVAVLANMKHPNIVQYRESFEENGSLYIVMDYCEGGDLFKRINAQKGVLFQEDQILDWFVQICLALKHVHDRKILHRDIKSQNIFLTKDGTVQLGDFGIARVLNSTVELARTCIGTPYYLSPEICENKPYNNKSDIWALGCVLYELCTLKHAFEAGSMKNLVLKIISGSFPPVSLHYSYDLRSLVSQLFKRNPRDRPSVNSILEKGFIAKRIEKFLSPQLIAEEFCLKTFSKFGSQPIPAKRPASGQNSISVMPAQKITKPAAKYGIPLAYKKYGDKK

EPHA2A = target: T9, EPHA2A (Homo sapiens, UniProt P29317)
T9 construct: purchased in-house DSF panel (SGC-style construct names; the trailing A/B is a construct suffix)
T9 sequence (P29317 596-900): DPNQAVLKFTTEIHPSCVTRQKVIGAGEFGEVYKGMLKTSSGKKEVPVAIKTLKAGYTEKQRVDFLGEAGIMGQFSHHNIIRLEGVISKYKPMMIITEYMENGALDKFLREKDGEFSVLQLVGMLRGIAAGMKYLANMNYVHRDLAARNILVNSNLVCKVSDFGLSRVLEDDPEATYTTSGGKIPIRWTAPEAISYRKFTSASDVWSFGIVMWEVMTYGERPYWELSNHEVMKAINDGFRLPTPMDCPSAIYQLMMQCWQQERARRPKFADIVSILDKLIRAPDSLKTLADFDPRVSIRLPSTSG

CLK1 = target: T10, CLK1 (Homo sapiens, UniProt P49759)
T10 construct: purchased in-house DSF panel (SGC-style construct names; the trailing A/B is a construct suffix)

MAP3K5A = target: T11, MAP3K5A (Homo sapiens, UniProt Q99683)
T11 construct: purchased in-house DSF panel (SGC-style construct names; the trailing A/B is a construct suffix)

WNK1A = target: T12, WNK1A (Homo sapiens, UniProt Q9H4A3)
T12 construct: purchased in-house DSF panel (SGC-style construct names; the trailing A/B is a construct suffix)

BMXA = target: T13, BMXA (Homo sapiens, UniProt P51813)
T13 construct: purchased in-house DSF panel (SGC-style construct names; the trailing A/B is a construct suffix)

MELKA = target: T14, MELKA (Homo sapiens, UniProt Q14680)
T14 construct: purchased in-house DSF panel (SGC-style construct names; the trailing A/B is a construct suffix)

NEK7A = target: T15, NEK7A (Homo sapiens, UniProt Q8TDX7)
T15 construct: purchased in-house DSF panel (SGC-style construct names; the trailing A/B is a construct suffix)

MARK4A = target: T16, MARK4A (Homo sapiens, UniProt Q96L34)
T16 construct: purchased in-house DSF panel (SGC-style construct names; the trailing A/B is a construct suffix)
T16 sequence (Q96L34 59-310): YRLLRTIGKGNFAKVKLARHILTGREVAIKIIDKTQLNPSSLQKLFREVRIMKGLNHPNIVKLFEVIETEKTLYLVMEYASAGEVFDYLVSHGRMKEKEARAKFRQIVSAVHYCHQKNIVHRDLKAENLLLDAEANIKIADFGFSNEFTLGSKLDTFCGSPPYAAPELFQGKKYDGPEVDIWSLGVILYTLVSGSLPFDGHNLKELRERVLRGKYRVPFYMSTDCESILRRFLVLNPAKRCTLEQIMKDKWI

T11 sequence (Q99683 659-951): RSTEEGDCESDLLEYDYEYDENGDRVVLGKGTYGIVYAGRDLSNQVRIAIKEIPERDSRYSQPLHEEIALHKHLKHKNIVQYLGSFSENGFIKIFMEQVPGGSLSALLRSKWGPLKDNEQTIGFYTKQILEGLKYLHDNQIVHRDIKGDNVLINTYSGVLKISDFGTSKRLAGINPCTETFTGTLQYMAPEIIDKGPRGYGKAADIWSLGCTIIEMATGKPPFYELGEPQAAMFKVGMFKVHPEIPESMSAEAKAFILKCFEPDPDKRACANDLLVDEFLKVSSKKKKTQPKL
T15 sequence (Q8TDX7 34-299): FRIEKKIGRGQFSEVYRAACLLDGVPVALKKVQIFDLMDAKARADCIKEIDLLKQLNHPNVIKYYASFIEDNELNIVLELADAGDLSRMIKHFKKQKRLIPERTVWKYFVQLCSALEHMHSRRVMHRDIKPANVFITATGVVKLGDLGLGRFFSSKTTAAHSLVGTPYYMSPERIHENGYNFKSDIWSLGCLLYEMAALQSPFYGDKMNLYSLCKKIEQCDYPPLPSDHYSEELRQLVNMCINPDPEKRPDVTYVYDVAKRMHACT
T10 sequence (P49759 148-484): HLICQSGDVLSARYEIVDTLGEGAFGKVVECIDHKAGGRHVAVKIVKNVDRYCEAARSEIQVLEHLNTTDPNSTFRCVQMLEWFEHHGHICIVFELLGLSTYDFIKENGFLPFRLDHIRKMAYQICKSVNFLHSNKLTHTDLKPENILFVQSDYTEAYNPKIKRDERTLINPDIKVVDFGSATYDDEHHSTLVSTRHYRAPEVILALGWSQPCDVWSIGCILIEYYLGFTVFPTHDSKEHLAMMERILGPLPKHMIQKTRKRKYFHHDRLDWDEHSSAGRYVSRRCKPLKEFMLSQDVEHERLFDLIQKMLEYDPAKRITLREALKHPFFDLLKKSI
T12 sequence (Q9H4A3 206-483): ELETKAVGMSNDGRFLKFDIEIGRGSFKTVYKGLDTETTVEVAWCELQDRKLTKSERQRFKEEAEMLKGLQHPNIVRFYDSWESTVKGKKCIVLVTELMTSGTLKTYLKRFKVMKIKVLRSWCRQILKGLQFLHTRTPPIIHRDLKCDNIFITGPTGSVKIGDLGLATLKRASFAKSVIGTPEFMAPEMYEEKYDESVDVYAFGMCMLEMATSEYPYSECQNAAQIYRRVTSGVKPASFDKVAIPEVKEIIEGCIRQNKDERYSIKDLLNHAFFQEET
T14 sequence (Q14680 1-340): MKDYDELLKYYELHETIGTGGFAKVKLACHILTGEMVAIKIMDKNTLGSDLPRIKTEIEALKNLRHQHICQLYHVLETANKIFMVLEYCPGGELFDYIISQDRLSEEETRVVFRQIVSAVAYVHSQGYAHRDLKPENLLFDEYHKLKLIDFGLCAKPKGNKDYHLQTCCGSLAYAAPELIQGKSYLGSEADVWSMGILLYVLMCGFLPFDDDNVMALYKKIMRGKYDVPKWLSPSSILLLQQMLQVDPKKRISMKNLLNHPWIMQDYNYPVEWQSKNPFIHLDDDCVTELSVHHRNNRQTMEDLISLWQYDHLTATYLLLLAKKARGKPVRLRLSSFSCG
T13 sequence (P51813 411-675): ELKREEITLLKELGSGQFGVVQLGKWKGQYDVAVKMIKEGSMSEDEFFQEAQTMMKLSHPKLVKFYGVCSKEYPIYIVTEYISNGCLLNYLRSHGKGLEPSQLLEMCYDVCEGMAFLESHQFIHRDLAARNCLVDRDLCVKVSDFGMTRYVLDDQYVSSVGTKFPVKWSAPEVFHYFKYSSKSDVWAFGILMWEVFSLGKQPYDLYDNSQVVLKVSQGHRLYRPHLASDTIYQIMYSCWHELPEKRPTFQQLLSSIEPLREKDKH
T7 sequence (P53779 whole entry): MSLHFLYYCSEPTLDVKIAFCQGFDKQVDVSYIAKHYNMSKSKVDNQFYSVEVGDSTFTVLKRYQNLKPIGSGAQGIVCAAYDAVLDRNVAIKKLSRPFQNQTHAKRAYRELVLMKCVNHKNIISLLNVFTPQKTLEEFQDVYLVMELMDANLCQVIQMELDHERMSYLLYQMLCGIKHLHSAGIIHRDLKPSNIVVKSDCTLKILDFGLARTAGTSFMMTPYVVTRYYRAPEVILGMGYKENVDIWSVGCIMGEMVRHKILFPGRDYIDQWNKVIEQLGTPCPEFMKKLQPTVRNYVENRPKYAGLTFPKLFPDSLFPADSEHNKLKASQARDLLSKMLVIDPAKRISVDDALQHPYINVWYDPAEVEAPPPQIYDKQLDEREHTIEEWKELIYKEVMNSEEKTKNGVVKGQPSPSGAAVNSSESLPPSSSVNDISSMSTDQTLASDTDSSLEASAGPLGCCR

Row | ΔTm at 20 µM (STK3A) [°C] | ΔTm at 20 µM (FLT1) [°C] | ΔTm at 20 µM (TTK1A) [°C] | ΔTm at 20 µM (PHKG2A) [°C] | ΔTm at 20 µM (PIM3A) [°C] | ΔTm at 20 µM (CDK2A) [°C] | ΔTm at 20 µM (MAPK10A) [°C] | ΔTm at 20 µM (NEK1A) [°C] | ΔTm at 20 µM (EPHA2A) [°C] | ΔTm at 20 µM (CLK1) [°C] | ΔTm at 20 µM (MAP3K5A) [°C] | ΔTm at 20 µM (WNK1A) [°C] | ΔTm at 20 µM (BMXA) [°C] | ΔTm at 20 µM (MELKA) [°C] | ΔTm at 20 µM (NEK7A) [°C] | ΔTm at 20 µM (MARK4A) [°C] | SMILES
1 | 8.18 | 11.7 | 4.14 | 8.76 | -4.95 | 7.79 | 5.76 | 0.45 | 8.99 | 12 | 8.63 | 1.05 | 5.53 | 10.1 | 0.39 | 6.16 | CC(C)(C)OC(=O)NCCOCCOCCOCCOCCC(=O)N1CCN(c2cc(Nc3cc(C4CC4)[nH]n3)nc(Nc3ccc(CC#N)cc3)n2)CC1 [4-L]
2 | 8.81 | 8.06 | 4.18 | 5.86 | 0.61 | 7.86 | 6.08 | 0.017 | 4.48 | 13.6 | 8.95 | 0.56 | 1.62 | 8.44 | 0.5 | 3.21 | CC(C)(C)OC(=O)NCCCOCCOCCOCCCNC(=O)c1cc(Nc2cc(C3CC3)[nH]n2)nc(Nc2ccc(CC#N)cc2)n1 [5-L]
3 | 9.87 | 9.16 | 4.46 | 7.46 | -0.28 | 12.5 | 5.33 | 0.62 | 6.12 | 14.4 | 6.97 | 0.55 | 2.01 | 9.78 | 0.0755 | 6.15 | CCOC(=O)c1cc(Nc2cc(C3CC3)[nH]n2)nc(Nc2ccc(CC#N)cc2)n1 [compound 5]
